From patent US20240139211A1, “METHODS AND COMPOSITIONS FOR TREATING AMYOTROPHIC LATERAL SCLEROSIS” (Amylyx Pharmaceuticals, Inc., priority 2022, published 2024)

How the values were obtained:
hrCYP1A2 = molecular target: T1, hrCYP1A2 (Homo sapiens, UniProt P05177); assay: CYP reaction phenotyping with hrCYP1A2 (% remaining); type: in vitro ADME; details: for % Remaining of TA: hrCYP1A2 20 pmol CYP/mL, 5 μM TA, PB and TUDCA co-incubated
T1 sequence (P05177 1-516): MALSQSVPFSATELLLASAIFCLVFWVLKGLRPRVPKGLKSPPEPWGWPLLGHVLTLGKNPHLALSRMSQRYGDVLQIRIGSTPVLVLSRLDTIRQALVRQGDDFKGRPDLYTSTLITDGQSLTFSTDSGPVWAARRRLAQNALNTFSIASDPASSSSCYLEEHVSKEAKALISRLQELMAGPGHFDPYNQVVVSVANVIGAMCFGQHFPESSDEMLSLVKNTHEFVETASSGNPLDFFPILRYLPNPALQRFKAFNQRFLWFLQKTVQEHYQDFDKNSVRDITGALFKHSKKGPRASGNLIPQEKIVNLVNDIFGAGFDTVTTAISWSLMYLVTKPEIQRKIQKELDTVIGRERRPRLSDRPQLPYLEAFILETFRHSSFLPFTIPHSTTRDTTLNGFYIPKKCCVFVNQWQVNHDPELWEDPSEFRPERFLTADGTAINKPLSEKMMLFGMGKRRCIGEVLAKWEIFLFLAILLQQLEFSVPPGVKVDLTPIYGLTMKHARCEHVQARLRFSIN

hrCYP2C9 = hrCYP2C9 (Homo sapiens, UniProt P11712); assay: CYP reaction phenotyping with hrCYP2C9 (% remaining); type: in vitro ADME; details: for % Remaining of TA: hrCYP2C9 20 pmol CYP/mL, 5 μM TA, PB and TUDCA co-incubated
Chain of hrCYP2C9 (P11712 whole entry): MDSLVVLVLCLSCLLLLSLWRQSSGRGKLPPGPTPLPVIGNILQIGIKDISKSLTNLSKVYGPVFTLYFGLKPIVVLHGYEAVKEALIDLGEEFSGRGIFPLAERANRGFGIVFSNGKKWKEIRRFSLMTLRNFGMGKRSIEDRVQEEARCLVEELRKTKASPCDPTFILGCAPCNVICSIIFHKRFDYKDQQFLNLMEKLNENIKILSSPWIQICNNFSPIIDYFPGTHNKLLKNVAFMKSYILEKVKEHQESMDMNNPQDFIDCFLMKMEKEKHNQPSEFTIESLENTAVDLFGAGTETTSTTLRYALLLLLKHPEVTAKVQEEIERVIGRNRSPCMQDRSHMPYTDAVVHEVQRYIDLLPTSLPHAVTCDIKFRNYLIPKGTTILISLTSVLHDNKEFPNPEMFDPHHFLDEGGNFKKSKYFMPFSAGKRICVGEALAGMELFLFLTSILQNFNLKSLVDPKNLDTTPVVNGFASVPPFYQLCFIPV

[1] = Chemical stability in HBSSg_7.4 and HBSS_8.5; type: physicochemical; details: for Chemical stability in the tested matrices: 0.5 μM, 37° C., HBSSg_7.4 and HBSS_8.5
Experimental: At pre-determined time points, an equal volume of acetonitrile with internal standard was added to each vial, and the mixture was placed at 4° C. until the end of the assay. The peak areas of the test article and IS of each sample were determined by LC-MS/MS, and the ratios of the peak areas (analyte:IS) were calculated.

[2] = Rat drug-drug interaction study TDF + AMX0035: urine recovery; type: in vivo
Experimental: Total urine recovery data for Tenofovir, TDF, and PB was calculated for the 24 hour collection period on Days 1 and 5. […] The reported urine recovery data included amount recovered (ng) and percent recovered (%) for […]. Individual and mean Tenofovir, TDF, and PB urine recovery data were presented with SD, reported to three significant figures, and CV %, reported to one decimal place.

OCT2 = molecular target: T2, OCT2 (Homo sapiens, UniProt O15244); assay: OCT2 inhibition, MPP+ uptake in transfected HEK cells; details: read-out: Estimated IC50 toward OCT2; TUDCA and PB present simultaneously
T2 sequence (O15244 1-555): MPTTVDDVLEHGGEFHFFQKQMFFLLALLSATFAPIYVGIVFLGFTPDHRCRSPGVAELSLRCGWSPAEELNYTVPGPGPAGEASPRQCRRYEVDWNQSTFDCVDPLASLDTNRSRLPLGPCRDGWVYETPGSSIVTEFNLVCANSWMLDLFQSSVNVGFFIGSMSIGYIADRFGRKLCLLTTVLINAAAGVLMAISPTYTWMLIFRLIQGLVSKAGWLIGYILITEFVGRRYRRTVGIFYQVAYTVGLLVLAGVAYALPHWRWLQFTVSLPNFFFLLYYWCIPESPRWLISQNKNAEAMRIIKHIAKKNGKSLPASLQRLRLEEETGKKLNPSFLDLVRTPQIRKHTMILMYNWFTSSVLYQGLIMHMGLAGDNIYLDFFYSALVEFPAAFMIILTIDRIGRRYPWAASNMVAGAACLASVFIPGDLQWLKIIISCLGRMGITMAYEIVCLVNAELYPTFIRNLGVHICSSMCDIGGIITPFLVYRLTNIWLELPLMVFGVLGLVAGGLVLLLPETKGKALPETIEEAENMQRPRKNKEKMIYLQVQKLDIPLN

[3] = male, CD (Sprague-Dawley) IGS, rat, in vivo
MATE1 = molecular target: T3, MATE1 (Homo sapiens, UniProt Q96FL8); assay: in vitro
T3 sequence (Q96FL8 1-570): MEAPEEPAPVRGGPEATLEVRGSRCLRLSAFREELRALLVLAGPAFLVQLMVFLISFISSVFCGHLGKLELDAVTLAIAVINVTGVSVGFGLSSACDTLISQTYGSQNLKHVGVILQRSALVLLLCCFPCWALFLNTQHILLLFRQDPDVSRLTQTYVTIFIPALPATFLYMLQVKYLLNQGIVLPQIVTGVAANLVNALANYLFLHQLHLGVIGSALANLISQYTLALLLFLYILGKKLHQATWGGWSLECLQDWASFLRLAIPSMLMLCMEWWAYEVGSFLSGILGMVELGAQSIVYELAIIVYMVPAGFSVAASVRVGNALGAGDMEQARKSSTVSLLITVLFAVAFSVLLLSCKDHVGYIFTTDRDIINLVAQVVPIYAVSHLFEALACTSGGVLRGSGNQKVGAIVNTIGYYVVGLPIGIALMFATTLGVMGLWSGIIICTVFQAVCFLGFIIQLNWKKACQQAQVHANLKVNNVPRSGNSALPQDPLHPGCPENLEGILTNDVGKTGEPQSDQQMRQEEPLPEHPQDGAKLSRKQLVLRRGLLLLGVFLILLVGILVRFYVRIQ

OATP1B3 = OATP1B3 (Homo sapiens, UniProt Q9NPD5); assay: in vitro
Chain of OATP1B3 (Q9NPD5 whole entry): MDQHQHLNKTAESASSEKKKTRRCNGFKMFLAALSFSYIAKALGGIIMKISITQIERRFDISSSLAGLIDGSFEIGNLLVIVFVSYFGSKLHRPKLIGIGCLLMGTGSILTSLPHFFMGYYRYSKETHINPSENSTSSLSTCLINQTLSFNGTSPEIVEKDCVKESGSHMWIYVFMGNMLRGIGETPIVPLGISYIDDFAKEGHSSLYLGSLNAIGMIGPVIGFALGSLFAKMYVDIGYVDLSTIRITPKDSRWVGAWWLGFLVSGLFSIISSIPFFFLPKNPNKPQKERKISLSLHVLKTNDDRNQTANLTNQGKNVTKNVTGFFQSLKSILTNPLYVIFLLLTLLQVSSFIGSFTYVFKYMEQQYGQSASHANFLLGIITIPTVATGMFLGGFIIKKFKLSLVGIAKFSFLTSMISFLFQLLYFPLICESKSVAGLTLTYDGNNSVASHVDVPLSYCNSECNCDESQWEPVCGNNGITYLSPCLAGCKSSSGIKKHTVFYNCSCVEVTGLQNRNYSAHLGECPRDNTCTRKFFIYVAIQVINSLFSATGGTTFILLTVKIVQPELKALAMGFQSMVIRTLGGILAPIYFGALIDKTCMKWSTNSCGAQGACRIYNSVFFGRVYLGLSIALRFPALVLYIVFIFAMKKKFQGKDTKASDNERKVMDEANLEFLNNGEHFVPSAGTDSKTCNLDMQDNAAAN

[4] = HBSSg_7.4, Overnight (~1020-[…])
[5] = HBSSg_8.5, Overnight (~1020-[…])

tauroursodeoxycholic acid [TUDCA]
% Remaining of TA (hrCYP1A2; 0 min): 100%
% Remaining of TA (hrCYP1A2; 5 min): 98.0%
% Remaining of TA (hrCYP1A2; 10 min): 101%
% Remaining of TA (hrCYP1A2; 20 min): 99.9%
% Remaining of TA (hrCYP1A2; 30 min): 103%
% Remaining of TA (hrCYP1A2; 60 min): 90.5%
% Remaining of TA (hrCYP2C9; 0 min): 100%
% Remaining of TA (hrCYP2C9; 5 min): 96.0%
% Remaining of TA (hrCYP2C9; 10 min): 98.8%
% Remaining of TA (hrCYP2C9; 20 min): 98.5%
% Remaining of TA (hrCYP2C9; 30 min): 97.8%
% Remaining of TA (hrCYP2C9; 60 min): 90.3%
Chemical stability in the tested matrices [1]: appeared to be stable
Percent of the 0-minute value ([1]; HBSSg_7.4, 0 minutes): 100%
Percent of the 0-minute value ([1]; HBSSg_7.4, 120 minutes): 101%
Percent of the 0-minute value [1, 4]: 95.3%
Percent of the 0-minute value ([1]; HBSSg_8.5, 0 minutes): 100%
Percent of the 0-minute value ([1]; HBSSg_8.5, 120 minutes): 90.8%
Percent of the 0-minute value [1, 5]: 96.5%
Detection in urine ([2]; Days 1 and 5): not detected in any urine samples
IC50 (OCT2): > 162 µM

O=C(O)CCCc1ccccc1 [PB, sodium phenylbutyrate]
% remaining after 60 minutes (hrCYP1A2; human, 1 h, 5 µM, pH 7.4): greater than 90%
% remaining after 60 minutes (hrCYP2C9; human, 1 h, 5 µM, pH 7.4): greater than 90%
Chemical stability in the tested matrices [1]: appeared to be stable
Percent of the 0-minute value ([1]; HBSSg_7.4, 0 minutes): 100%
Percent of the 0-minute value ([1]; HBSSg_7.4, 120 minutes): 99.3%
Percent of the 0-minute value [1, 4]: 105%
Percent of the 0-minute value ([1]; HBSSg_8.5, 0 minutes): 100%
Percent of the 0-minute value ([1]; HBSSg_8.5, 120 minutes): 79.4%
Percent of the 0-minute value [1, 5]: 98.6%
Urine concentrations ([2]; male, Sprague-Dawley, rat, in vivo): Urine concentrations for PB analysis in all animals on Day 1, for TUDCA analysis in all animals on Days 1 and 5, and for TDF analysis in two animals on Day 1 and one animal on Day 5 were BLQ (<20 mg/mL) so no recovery data was calculated.
Time through which plasma concentrations remained quantifiable [3]: 4 h
potency estimated from few doses (MATE1): < 250 µM

C[C@H](CCC(=O)NCC(=O)O)[C@H]1CC[C@H]2[C@@H]3[C@@H](O)C[C@@H]4C[C@H](O)CC[C@]4(C)[C@H]3CC[C@]12C [Glycoursodeoxycholic acid, glycoursodeoxycholic acid]
potency estimated from few doses (OATP1B3): < 100 µM
potency estimated from few doses (MATE1): > 100 µM
